{"source": "paper PMC7206119", "about": "“RIP1 inhibition blocks inflammatory diseases but not tumor growth or metastases” (Cell Death and Differentiation, 2019)", "assay_in_all_cases": "biochemical", "set-up_in_all_cases": "DiscoverX kinase panel, active-site competition binding (KINOMEscan type), percent of control at one concentration", "conditions_in_all_cases": "competition binding, percent of control", "key": {"[1]": {"target": "T1, CAMK1B (Homo sapiens, UniProt Q6P2M8)", "T1 construct": "gene PNCK"}, "[2]": {"target": "AKT2 (Homo sapiens, UniProt P31751)", "sequence (P31751 whole entry)": "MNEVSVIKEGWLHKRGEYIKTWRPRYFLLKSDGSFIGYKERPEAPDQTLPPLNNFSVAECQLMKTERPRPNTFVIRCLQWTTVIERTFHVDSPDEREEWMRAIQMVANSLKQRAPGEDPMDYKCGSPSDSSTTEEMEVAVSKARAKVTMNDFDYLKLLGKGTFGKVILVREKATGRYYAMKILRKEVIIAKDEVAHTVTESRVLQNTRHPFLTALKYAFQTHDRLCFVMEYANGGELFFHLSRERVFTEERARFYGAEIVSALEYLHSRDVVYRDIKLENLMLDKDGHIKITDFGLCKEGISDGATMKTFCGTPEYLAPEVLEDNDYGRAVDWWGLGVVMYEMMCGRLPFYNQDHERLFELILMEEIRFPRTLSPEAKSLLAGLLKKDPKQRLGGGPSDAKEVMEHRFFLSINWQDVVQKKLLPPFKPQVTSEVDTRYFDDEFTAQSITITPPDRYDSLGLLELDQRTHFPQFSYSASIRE"}, "[3]": {"target": "T2, PIP5K2C (Homo sapiens, UniProt Q8TBX8)", "T2 construct": "gene PIP4K2C"}, "[4]": {"target": "EPHA5 (Homo sapiens, UniProt P54756)"}, "[5]": {"target": "TTK (Homo sapiens, UniProt P33981)"}, "[6]": {"target": "TYRO3 (Homo sapiens, UniProt Q06418)", "sequence (Q06418 whole entry)": "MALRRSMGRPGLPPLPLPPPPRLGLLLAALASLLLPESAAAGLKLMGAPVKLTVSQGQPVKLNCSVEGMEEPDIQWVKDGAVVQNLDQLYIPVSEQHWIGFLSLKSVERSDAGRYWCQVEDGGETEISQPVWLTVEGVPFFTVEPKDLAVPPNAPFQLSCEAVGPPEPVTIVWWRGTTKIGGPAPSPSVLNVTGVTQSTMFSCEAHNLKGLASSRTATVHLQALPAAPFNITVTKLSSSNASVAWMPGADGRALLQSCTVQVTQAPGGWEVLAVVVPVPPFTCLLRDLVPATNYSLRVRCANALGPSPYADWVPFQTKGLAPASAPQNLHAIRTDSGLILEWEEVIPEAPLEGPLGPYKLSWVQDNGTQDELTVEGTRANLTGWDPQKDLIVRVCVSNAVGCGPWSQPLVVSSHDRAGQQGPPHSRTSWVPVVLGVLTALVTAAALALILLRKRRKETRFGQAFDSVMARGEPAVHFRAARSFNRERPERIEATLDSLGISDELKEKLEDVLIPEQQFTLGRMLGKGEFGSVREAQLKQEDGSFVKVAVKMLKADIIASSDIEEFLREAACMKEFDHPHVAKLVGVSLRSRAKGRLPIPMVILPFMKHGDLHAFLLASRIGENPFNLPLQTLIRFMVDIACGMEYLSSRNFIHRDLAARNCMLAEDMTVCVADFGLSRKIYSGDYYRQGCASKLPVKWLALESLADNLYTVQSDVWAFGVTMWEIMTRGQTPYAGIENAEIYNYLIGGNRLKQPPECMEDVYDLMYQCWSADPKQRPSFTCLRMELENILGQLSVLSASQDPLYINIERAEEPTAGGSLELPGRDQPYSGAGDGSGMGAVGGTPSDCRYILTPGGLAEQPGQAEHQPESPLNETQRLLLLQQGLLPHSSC"}, "[7]": {"target": "BMPR1A (Homo sapiens, UniProt P36894)", "sequence (P36894 whole entry)": "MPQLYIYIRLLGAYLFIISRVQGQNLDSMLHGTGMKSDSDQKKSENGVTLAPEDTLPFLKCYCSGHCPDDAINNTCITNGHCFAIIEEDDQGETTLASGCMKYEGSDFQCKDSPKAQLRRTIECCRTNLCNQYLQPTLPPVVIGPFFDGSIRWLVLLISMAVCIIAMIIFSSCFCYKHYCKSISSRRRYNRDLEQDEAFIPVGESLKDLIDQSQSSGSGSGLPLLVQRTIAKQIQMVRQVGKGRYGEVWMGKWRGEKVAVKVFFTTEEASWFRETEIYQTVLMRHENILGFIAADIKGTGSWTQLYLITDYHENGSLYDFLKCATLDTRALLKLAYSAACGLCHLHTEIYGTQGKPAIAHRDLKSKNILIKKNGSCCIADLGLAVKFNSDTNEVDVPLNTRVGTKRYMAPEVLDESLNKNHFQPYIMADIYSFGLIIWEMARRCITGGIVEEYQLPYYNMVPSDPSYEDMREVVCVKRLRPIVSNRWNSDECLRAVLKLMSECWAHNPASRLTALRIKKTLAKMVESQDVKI"}, "[8]": {"target": "IGF1R (Homo sapiens, UniProt P08069)"}, "[9]": {"target": "FES (Homo sapiens, UniProt P07332)"}, "[10]": {"target": "CAMKK1 (Homo sapiens, UniProt Q8N5S9)", "sequence (Q8N5S9 whole entry)": "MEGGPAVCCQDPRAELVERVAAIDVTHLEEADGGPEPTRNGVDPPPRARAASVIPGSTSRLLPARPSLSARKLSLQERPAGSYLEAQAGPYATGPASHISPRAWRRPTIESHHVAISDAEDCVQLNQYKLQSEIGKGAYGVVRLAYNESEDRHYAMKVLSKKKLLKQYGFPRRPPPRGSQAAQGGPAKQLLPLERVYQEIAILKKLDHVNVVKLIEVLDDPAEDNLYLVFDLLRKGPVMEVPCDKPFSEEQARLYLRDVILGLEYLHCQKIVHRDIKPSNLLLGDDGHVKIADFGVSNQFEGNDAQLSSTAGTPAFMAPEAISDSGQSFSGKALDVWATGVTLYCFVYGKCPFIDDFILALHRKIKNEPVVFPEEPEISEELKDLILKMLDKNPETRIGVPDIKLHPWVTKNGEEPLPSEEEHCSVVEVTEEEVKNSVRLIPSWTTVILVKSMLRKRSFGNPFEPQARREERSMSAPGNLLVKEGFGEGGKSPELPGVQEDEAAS"}, "[11]": {"target": "MAP4K2 (Homo sapiens, UniProt Q12851)", "sequence (Q12851 whole entry)": "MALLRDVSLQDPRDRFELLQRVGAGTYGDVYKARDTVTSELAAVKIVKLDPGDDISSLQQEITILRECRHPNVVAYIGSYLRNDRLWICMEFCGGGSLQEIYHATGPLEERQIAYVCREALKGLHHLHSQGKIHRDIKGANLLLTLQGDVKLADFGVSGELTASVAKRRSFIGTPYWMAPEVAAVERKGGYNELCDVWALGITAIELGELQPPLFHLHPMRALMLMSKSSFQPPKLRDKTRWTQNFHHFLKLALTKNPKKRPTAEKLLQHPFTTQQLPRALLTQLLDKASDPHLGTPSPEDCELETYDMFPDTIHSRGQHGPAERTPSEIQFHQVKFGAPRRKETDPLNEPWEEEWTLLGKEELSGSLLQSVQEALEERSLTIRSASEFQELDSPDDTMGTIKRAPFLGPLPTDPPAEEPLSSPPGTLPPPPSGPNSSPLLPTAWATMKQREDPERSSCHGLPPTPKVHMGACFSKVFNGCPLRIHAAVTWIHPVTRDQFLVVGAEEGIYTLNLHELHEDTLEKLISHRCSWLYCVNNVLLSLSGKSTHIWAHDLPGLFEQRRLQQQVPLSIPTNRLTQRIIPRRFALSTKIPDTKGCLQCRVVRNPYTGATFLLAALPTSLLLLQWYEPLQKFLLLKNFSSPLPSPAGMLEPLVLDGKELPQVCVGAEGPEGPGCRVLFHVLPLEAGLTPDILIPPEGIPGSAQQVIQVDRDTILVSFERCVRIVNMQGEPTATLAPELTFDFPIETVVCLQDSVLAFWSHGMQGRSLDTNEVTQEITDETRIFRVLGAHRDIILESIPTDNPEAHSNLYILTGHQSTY"}, "[12]": {"target": "ZAP70 (Homo sapiens, UniProt P43403)"}, "[13]": {"target": "T3, MRCKB (Homo sapiens, UniProt Q9Y5S2)", "T3 construct": "gene CDC42BPB"}, "[14]": {"target": "PHKG1 (Homo sapiens, UniProt Q16816)"}, "[15]": {"target": "RIPK1 (Homo sapiens, UniProt Q13546)", "sequence (Q13546 whole entry)": "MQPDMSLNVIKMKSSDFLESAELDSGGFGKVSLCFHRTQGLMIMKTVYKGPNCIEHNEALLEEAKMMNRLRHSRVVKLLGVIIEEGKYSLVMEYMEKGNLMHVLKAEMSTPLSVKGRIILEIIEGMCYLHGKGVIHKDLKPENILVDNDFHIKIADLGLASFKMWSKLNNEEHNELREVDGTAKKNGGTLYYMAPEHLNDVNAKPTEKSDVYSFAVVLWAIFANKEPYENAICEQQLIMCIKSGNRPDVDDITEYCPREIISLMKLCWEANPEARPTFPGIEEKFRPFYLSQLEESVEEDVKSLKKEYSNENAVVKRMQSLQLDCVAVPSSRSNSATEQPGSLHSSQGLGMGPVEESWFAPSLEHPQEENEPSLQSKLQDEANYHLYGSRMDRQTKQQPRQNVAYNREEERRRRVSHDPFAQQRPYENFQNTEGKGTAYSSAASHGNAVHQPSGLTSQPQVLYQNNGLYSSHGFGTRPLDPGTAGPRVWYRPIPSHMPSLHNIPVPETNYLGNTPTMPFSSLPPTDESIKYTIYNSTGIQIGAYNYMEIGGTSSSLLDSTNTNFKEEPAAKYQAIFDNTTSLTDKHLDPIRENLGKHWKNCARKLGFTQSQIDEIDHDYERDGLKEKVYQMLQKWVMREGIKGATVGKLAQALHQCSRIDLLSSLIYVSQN"}, "[16]": {"target": "STK36 (Homo sapiens, UniProt Q9NRP7)"}, "[17]": {"target": "CSNK2A2 (Homo sapiens, UniProt P19784)"}, "[18]": {"target": "T4, TIE2 (Homo sapiens, UniProt Q02763)", "T4 construct": "gene TEK"}, "[19]": {"target": "T5, ABL1(Y253F)-phosphorylated (Homo sapiens, UniProt P00519, Y253F)", "T5 construct": "phosphorylated"}, "[20]": {"target": "T6, ERK1 (Homo sapiens, UniProt P27361)", "T6 construct": "gene MAPK3"}, "[21]": {"target": "FGFR3(G697C) (Homo sapiens, UniProt P22607, G697C)", "sequence (P22607 whole entry G697C)": "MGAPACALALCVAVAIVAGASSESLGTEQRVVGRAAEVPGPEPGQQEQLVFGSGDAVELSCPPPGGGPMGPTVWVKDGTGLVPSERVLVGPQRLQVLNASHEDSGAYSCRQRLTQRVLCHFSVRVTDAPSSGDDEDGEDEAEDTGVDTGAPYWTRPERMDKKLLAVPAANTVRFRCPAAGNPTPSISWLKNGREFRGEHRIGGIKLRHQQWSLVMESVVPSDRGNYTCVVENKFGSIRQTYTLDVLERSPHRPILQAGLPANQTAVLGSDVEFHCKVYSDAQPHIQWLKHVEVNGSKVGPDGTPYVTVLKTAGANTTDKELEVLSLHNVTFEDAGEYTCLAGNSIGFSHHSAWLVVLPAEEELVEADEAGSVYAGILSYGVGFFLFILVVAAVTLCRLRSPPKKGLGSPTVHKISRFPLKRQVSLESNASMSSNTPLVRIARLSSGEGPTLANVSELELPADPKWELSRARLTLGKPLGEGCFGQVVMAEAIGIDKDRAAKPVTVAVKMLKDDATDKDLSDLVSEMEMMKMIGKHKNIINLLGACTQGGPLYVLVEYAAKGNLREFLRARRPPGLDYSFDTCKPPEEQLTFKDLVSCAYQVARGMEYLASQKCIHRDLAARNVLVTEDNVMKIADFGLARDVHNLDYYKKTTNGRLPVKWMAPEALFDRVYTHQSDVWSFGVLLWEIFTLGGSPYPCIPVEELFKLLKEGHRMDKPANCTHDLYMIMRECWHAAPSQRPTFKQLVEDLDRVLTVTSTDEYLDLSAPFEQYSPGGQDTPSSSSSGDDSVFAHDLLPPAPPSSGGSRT"}}, "data": [{"molecule": "COc1cc2c(cn1)N(C)C(=O)[C@@H](NC(=O)c1nc3n(n1)[C@H](c1ccccc1)CC3)CC2", "note": "[GNE684, (S)-N-((S)-7-methoxy-1-methyl-2-oxo-2,3,4,5-tetrahydro-1H-pyrido[3,4-b]azepin-3-yl)-5-phenyl-6,7-dihydro-5H-pyrrolo[1,2-b][1,2,4]triazole-2-carboxamide]", "values": [{"measurement": "remaining binding at 10 µM", "setting": "[1]", "value": 100, "unit": "%"}, {"measurement": "remaining binding at 10 µM", "setting": "[2]", "value": 92, "unit": "%"}, {"measurement": "remaining binding at 10 µM", "setting": "[3]", "value": 76, "unit": "%"}, {"measurement": "remaining binding at 10 µM", "setting": "[4]", "value": 100, "unit": "%"}, {"measurement": "remaining binding at 10 µM", "setting": "[5]", "value": 100, "unit": "%"}, {"measurement": "remaining binding at 10 µM", "setting": "[6]", "value": 97, "unit": "%"}, {"measurement": "remaining binding at 10 µM", "setting": "[7]", "value": 91, "unit": "%"}, {"measurement": "remaining binding at 10 µM", "setting": "[8]", "value": 87, "unit": "%"}, {"measurement": "remaining binding at 10 µM", "setting": "[9]", "value": 100, "unit": "%"}, {"measurement": "remaining binding at 10 µM", "setting": "[10]", "value": 99, "unit": "%"}, {"measurement": "remaining binding at 10 µM", "setting": "[11]", "value": 100, "unit": "%"}, {"measurement": "remaining binding at 10 µM", "setting": "[12]", "value": 100, "unit": "%"}, {"measurement": "remaining binding at 10 µM", "setting": "[13]", "value": 100, "unit": "%"}, {"measurement": "remaining binding at 10 µM", "setting": "[14]", "value": 77, "unit": "%"}, {"measurement": "remaining binding at 10 µM", "setting": "[15]", "value": 0, "unit": "%"}, {"measurement": "remaining binding at 10 µM", "setting": "[16]", "value": 85, "unit": "%"}, {"measurement": "remaining binding at 10 µM", "setting": "[17]", "value": 85, "unit": "%"}, {"measurement": "remaining binding at 10 µM", "setting": "[18]", "value": 92, "unit": "%"}, {"measurement": "remaining binding at 10 µM", "setting": "[19]", "value": 100, "unit": "%"}, {"measurement": "remaining binding at 10 µM", "setting": "[20]", "value": 96, "unit": "%"}, {"measurement": "remaining binding at 10 µM", "setting": "[21]", "value": 88, "unit": "%"}]}]}
